# Molecular target: T1, 11βHSD1 (Homo sapiens, UniProt P28845)
# T1 construct: from tissue
# Assay: Human adipocytes cell based assay (cortisone to cortisol, ELISA)
# Details: human omental adipocytes, 300 nM cortisone, 24 hours at 37° C.
# Experimental: Human Adipocytes Cell Based Assay
# Cells were ordered from ZenBio, RTP, NC (www.zen-bio.com (OA-1096-3)) pre-plated (96 well). Cell Media was supplied by ZenBio (Omental Adipocyte Medium #OM-AM).
# Test compounds were prepared at 10 concentrations (10 μM-0.1 nM). Dilutions were made up in Cell Media. Cell Media from the plate is aspirated and 97 μL was added to the wells.
# The plates were incubated for 15 minutes (37° C.).
# 3 μL of […] cortisone (Sigma #C2755) (300 nM FAC) was added, for a total well volume of 100 μL.
# The plates were incubated for 24 hours (37° C.).
# The media was harvested from cells.
# The samples were then assayed using Cortisol ELISA Kits (R & D Systems #SKGE008). Samples were diluted by a factor of 5. Specific instructions were included in the kit to quantify presence of cortisol in samples through an ELISA assay.
# The plates were read on a Spectramax at 450 nm OD.
# T1 sequence (P28845 whole entry): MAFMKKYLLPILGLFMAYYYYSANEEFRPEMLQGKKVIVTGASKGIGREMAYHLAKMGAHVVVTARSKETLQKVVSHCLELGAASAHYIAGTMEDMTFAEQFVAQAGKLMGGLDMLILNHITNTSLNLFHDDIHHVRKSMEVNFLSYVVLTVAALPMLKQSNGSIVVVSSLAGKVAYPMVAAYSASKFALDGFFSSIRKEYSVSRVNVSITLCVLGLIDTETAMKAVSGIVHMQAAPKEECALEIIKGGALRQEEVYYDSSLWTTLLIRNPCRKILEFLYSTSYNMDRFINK
row,SMILES,IC50
1,"O=C(N[C@H]1C2CC3CC1C[C@](O)(C3)C2)c1csc(Nc2ccc(Cl)cn2)n1 [Example 2, 2-(5-Chloro-pyridin-2-ylamino)-thiazole-4-carboxylic acid [(E)-5-hydroxyadamantan-2-yl]-amide]",19 nM

# Molecular target: T1, 11βHSD1
# Assay: in vitro 11β-HSD assay (human microsomes, CISBIO cortisol kit)
# Assay type: biochemical
# Details: 160 nM cortisone, 200 μM NADPH, 2 h at 37° C., pH 6.0
# Experimental: The following assay methods were used to identify and evaluate compounds of Formula (I) that are effective in modulating 11βHSD1.
# CISBIO Cortisol kit #62CO2PEB
# Assay Buffer: (water based) used for Enzyme, Compounds and Microsomes: 20 mM Tris, 5 mM EDTA, and pH 6.0.
# Enzyme Buffer: 333 μM NADPH (FAC 200 μM) and 266 nM Cortisone (FAC 160 nM).
# 1) Test compounds (10 mM stock in 100% DMSO) were diluted in Assay Buffer (see below) with 1% DMSO FAC and placed into the 96-well plate. Test compounds were typically tested over 10 concentrations (30 μM-0.3 nM).
# 2) 30 μL Enzyme Buffer, 10 μL Test Compound, 10 μL human microsomes were added to the test compounds and mixed gently by tapping the plate.
# 3) The plates were incubated for 2 h at 37° C.
# 4) 25 μL anti Cortisol-K and 25 μL Cortisol d2 were added to the plate and mixed gently by tapping the plate.
# 5) The plates were incubated at room temperature for 2 h.
# 6) The plates were read on an Envision model 2120 Perkin-Elmer using emission filters #205 and #217.
row,SMILES,EC50
1,"O=C(N[C@H]1C2CC3CC1C[C@](O)(C3)C2)c1csc(NCc2ccco2)n1 [Example 1, 2-[(Furan-2-ylmethyl)-amino]-thiazole-4-carboxylic acid [(E)-5-hydroxy-adamantan-2-yl]-amide]",360 nM
2,"O=C(N[C@H]1C2CC3CC1C[C@](O)(C3)C2)c1csc(Nc2ccc(Cl)cn2)n1 [Example 2, 2-(5-Chloro-pyridin-2-ylamino)-thiazole-4-carboxylic acid [(E)-5-hydroxyadamantan-2-yl]-amide]",31 nM
3,"O=C(N[C@H]1C2CC3CC1C[C@](O)(C3)C2)c1csc(Nc2ccncc2)n1 [Example 3, 2-(Pyridin-4-ylamino)-thiazole-4-carboxylic acid [(E)-5-hydroxy-adamantan-2-yl]-amide]",110 nM
4,"O=C(N[C@H]1C2CC3CC1C[C@](O)(C3)C2)c1csc(Nc2cccnc2)n1 [Example 4, 2-(Pyridin-3-ylamino)-thiazole-4-carboxylic acid [(E)-5-hydroxy-adamantan-2-yl]-amide]",26 nM
5,"O=C(N[C@H]1C2CC3CC1C[C@](O)(C3)C2)c1csc(Nc2ccccn2)n1 [Example 5, 2-(Pyridin-2-ylamino)-thiazole-4-carboxylic acid [(E)-5-hydroxy-adamantan-2-yl]-amide]",4000 nM
6,"O=C(N[C@H]1C2CC3CC1C[C@](O)(C3)C2)c1csc(NCCc2ccccc2)n1 [Example 6, 2-(2-Phenyl-ethylamino)-thiazole-4-carboxylic acid [(E)-5-hydroxy-adamantan-2-yl]-amide]",11 nM
7,"O=C(N[C@H]1C2CC3CC1C[C@](O)(C3)C2)c1csc(NCCc2ccccn2)n1 [Example 7, 2-(2-Pyridin-2-yl-ethylamino)-thiazole-4-carboxylic acid [(E)-5-hydroxy-adamantan-2-yl]-amide]",127 nM
8,"O=C(N[C@H]1C2CC3CC1C[C@](O)(C3)C2)c1csc(Nc2ccc(C(F)(F)F)cc2)n1 [Example 8, 2-(4-Trifluoromethyl-phenylamino)-thiazole-4-carboxylic acid [(E)-5-hydroxy-adamantan-2-yl]-amide]",13 nM
9,"COc1ccc(Nc2nc(C(=O)N[C@H]3C4CC5CC3C[C@](O)(C5)C4)cs2)cc1 [Example 9, 2-(4-Methoxy-phenylamino)-thiazole-4-carboxylic acid [(E)-5-hydroxy-adamantan-2-yl]-amide]",2 nM
10,"O=C(N[C@H]1C2CC3CC1C[C@](O)(C3)C2)c1csc(Nc2ccc(Cl)cc2)n1 [Example 10, 2-(4-Chloro-phenylamino)-thiazole-4-carboxylic acid [(E)-5-hydroxy-adamantan-2-yl]-amide]",8.7 nM
11,"O=C(N[C@H]1C2CC3CC1C[C@](O)(C3)C2)c1csc(Nc2ccc(F)cc2)n1 [Example 11, 2-(4-Fluoro-phenylamino)-thiazole-4-carboxylic acid [(E)-5-hydroxy-adamantan-2-yl]-amide]",2.7 nM
12,"O=C(N[C@H]1C2CC3CC1C[C@](O)(C3)C2)c1csc(Nc2ccc(Cl)c(Cl)c2)n1 [Example 12, 2-(3,4-Dichloro-phenylamino)-thiazole-4-carboxylic acid [(E)-5-hydroxy-adamantan-2-yl]-amide]",112 nM
13,"O=C(N[C@H]1C2CC3CC1C[C@](O)(C3)C2)c1csc(NCc2cccnc2)n1 [Example 13, 2-[(Pyridin-3-ylmethyl)-amino]-thiazole-4-carboxylic acid [(E)-5-hydroxy-adamantan-2-yl]-amide]",39 nM
14,"O=C(N[C@H]1C2CC3CC1C[C@](O)(C3)C2)c1csc(NCc2ccccc2)n1 [Example 14, 2-Benzylamino-thiazole-4-carboxylic acid [(E)-5-hydroxy-adamantan-2-yl]-amide]",78 nM
15,"O=C(N[C@H]1C2CC3CC1C[C@](O)(C3)C2)c1csc(NCCc2cccnc2)n1 [Example 15, 2-(2-Pyridin-3-yl-ethylamino)-thiazole-4-carboxylic acid [(E)-5-hydroxy-adamantan-2-yl]-amide]",165 nM
16,"O=C(N[C@H]1C2CC3CC1C[C@](O)(C3)C2)c1csc(NCCc2ccncc2)n1 [Example 16, 2-(2-Pyridin-4-yl-ethylamino)-thiazole-4-carboxylic acid [(E)-5-hydroxy-adamantan-2-yl]-amide]",369 nM
17,"O=C(N[C@H]1C2CC3CC1C[C@](O)(C3)C2)c1cnc(Nc2ccc(Cl)cn2)s1 [Example 17, 2-(5-Chloro-pyridin-2-ylamino)-thiazole-5-carboxylic acid [(E)-5-hydroxy-adamantan-2-yl]-amide]",31 nM
18,"Cc1nc(NCCc2ccccc2)sc1C(=O)N[C@H]1C2CC3CC1C[C@](O)(C3)C2 [Example 18, 4-Methyl-2-phenethylamino-thiazole-5-carboxylic acid [(E)-5-hydroxy-adamantan-2-yl]-amide]",48 nM
